Several values for one entry are separate records, joined by “and”; a condition that tells them apart may be missing. Equal values may be shown once. Inconclusive results and toxic doses are left out.
Tested on: L1210 leukemia ip in BDF1 mice, survival T/C
Test: NCI In Vivo Anticancer Drug Screen. Data for tumor model L1210 Leukemia (intraperitoneal) in B6D2F1 (BDF1) mice
Conditions: endpoint: mean survival time, higher = longer survival
In short: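 Value reflects the ratio of survival in compound-treated mice to survival in vehicle-treated controls, with both groups carrying the same transplanted tumor.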

[1] = dose: 100.0 mg/kg/injection, schedule: Q01DX001 (ip), vehicle: Klucel (hydroxypropylcellulose) (HPC)
[2] = dose: 200.0 mg/kg/injection, schedule: Q01DX001 (ip), vehicle: Klucel (hydroxypropylcellulose) (HPC)
[3] = dose: 100.0 mg/kg/injection, schedule: Q01DX009 (ip), vehicle: saline with Tween-80
[4] = dose: 200.0 mg/kg/injection, schedule: Q01DX009 (ip), vehicle: saline with Tween-80
[5] = dose: 400.0 mg/kg/injection, schedule: Q01DX009 (ip), vehicle: saline with Tween-80
[6] = dose: 100.0 mg/kg/injection, schedule: Q01DX001 (ip), vehicle: carboxymethylcellulose (CMC)
[7] = dose: 200.0 mg/kg/injection, schedule: Q01DX001 (ip), vehicle: carboxymethylcellulose (CMC)
[8] = dose: 100.0 mg/kg/injection, schedule: Q04DX003 (ip), vehicle: saline with Tween-80
[9] = dose: 200.0 mg/kg/injection, schedule: Q04DX003 (ip), vehicle: saline with Tween-80
[10] = dose: 400.0 mg/kg/injection, schedule: Q04DX003 (ip), vehicle: saline with Tween-80
[11] = dose: 100.0 mg/kg/injection, schedule: Q01DX001 (ip), vehicle: saline
[12] = dose: 200.0 mg/kg/injection, schedule: Q01DX001 (ip), vehicle: saline
[13] = dose: 400.0 mg/kg/injection, schedule: Q01DX001 (ip), vehicle: saline
[14] = dose: 400.0 mg/kg/injection, schedule: Q01DX001 (ip), vehicle: carboxymethylcellulose (CMC)
[15] = dose: 100.0 mg/kg/injection, schedule: Q01DX009 (ip), vehicle: saline
[16] = dose: 100.0 mg/kg/injection, schedule: Q04DX003 (ip), vehicle: saline
[17] = dose: 200.0 mg/kg/injection, schedule: Q01DX009 (ip), vehicle: saline
[18] = dose: 200.0 mg/kg/injection, schedule: Q04DX003 (ip), vehicle: saline
[19] = dose: 400.0 mg/kg/injection, schedule: Q04DX003 (ip), vehicle: saline
[20] = dose: 12.5 mg/kg/injection, schedule: Q01DX009 (ip), vehicle: saline
[21] = dose: 50.0 mg/kg/injection, schedule: Q01DX009 (ip), vehicle: saline with Tween-80
[22] = dose: 100.0 mg/kg/injection, schedule: Q04DX003 (ip), vehicle: Klucel (hydroxypropylcellulose) (HPC)
[23] = dose: 50.0 mg/kg/injection, schedule: Q01DX009 (ip), vehicle: saline

## O=C(O)c1ccc(N=C=S)cc1O
[1]
  T/C: 97 % of control
[2]
  T/C: 107 % of control
dose: 400.0 mg/kg/injection, schedule: Q01DX001 (ip), vehicle: Klucel (hydroxypropylcellulose) (HPC)
  T/C: 97 % of control

## CCCCCCCCCCCCCCC(=O)N/N=C/c1ccc([N+](=O)[O-])s1
[3]
  T/C: 91 % of control
[4]
  T/C: 88 % of control
[5]
  T/C: 100 % of control

## NNc1ccc2cccc(O)c2n1
[6]
  T/C: 90 % of control
[7]
  T/C: 93 % of control

## CSc1cc(C(=O)O)nc(SC)n1
dose: 100.0 mg/kg/injection, schedule: Q01DX Z (ip), vehicle: methylcellulose (MC)
  T/C: 97 % of control

## CCOC(OCC)c1c(Cl)cccc1Cl
[3]
  T/C: 98 % of control
[8]
  T/C: 99 % of control
[4]
  T/C: 88 % of control
[9]
  T/C: 93 % of control
[5]
  T/C: 101 % of control
[10]
  T/C: 93 % of control

## Cl[Si](Cc1ccccc1)(Cc1ccccc1)Cc1ccccc1
[11]
  T/C: 93 % of control
[12]
  T/C: 88 % of control
[13]
  T/C: 95 % of control

## O=c1nc(NO)c(Br)cn1C1CCCCO1 (stereo not drawn)
[6]
  T/C: 96 % of control
[7]
  T/C: 96 % of control
[14]
  T/C: 96 % of control

## COc1cc(Br)c(CC(=O)c2cn(C(=O)Cc3cc(OC)c(OC)cc3Br)c3ccc(Br)cc23)cc1OC
dose: 50.0 mg/kg/injection, schedule: Q01DX001 (ip), vehicle: saline
  T/C: 106 % of control
[11]
  T/C: 96 % of control
[12]
  T/C: 102 % of control
[13]
  T/C: 96 % of control

## CC1=NN(c2cccc(S(=O)(=O)O)c2)C(=O)C1
[8]
  T/C: 105 % of control
[9]
  T/C: 101 % of control
[10]
  T/C: 89 % of control

## CC(N)=O.CC(N)=O.Nc1ccnc(=O)[nH]1.[Cl][Pt]
[15]
  T/C: 110 % of control
[16]
  T/C: 114 % of control
[17]
  T/C: 114 % of control
[18]
  T/C: 116 % of control
dose: 400.0 mg/kg/injection, schedule: Q01DX009 (ip), vehicle: saline
  T/C: 101 % of control
[19]
  T/C: 119 % of control

## CCOC(=O)/C(Cc1ccc2c(c1)OCO2)=N\O
[16]
  T/C: 96 % of control
[18]
  T/C: 97 % of control
[19]
  T/C: 103 % of control

## c1cc[c]([Hg][S]c2nc3ccccc3s2)cc1
dose: 50.0 mg/kg/injection, schedule: Q01DX001 (ip), vehicle: carboxymethylcellulose (CMC)
  T/C: 96 % of control
[6]
  T/C: 108 % of control

## CCOC(=S)SCC(=O)CSC(=S)OCC
dose: 25.0 mg/kg/injection, schedule: Q04DX002 (ip), vehicle: Klucel (hydroxypropylcellulose) (HPC)
  T/C: 103 % of control
dose: 50.0 mg/kg/injection, schedule: Q04DX002 (ip), vehicle: Klucel (hydroxypropylcellulose) (HPC)
  T/C: 97 % of control
dose: 100.0 mg/kg/injection, schedule: Q04DX002 (ip), vehicle: Klucel (hydroxypropylcellulose) (HPC)
  T/C: 110 % of control

## CCCC[As](=O)(O)CC(C)C
dose: 6.25 mg/kg/injection, schedule: Q01DX009 (ip), vehicle: saline
  T/C: 93 % of control
[20]
  T/C: 101 % of control

## CC(=O)c1ccc(C(=O)O)cc1
[21]
  T/C: 87 % of control
[3]
  T/C: 115 % of control
[4]
  T/C: 94 % of control

## Clc1ccc(Cl)c(NNc2cc(Cl)ccc2Cl)c1
dose: 25.0 mg/kg/injection, schedule: Q01DX009 (ip), vehicle: Klucel (hydroxypropylcellulose) (HPC)
  T/C: 114 % of control
dose: 50.0 mg/kg/injection, schedule: Q01DX009 (ip), vehicle: Klucel (hydroxypropylcellulose) (HPC)
  T/C: 98 % of control
dose: 100.0 mg/kg/injection, schedule: Q01DX009 (ip), vehicle: Klucel (hydroxypropylcellulose) (HPC)
  T/C: 96 % of control and 92 % of control
[22]
  T/C: 98 % of control
dose: 200.0 mg/kg/injection, schedule: Q04DX003 (ip), vehicle: Klucel (hydroxypropylcellulose) (HPC)
  T/C: 101 % of control

## CC(C)CCC[C@@H](C)[C@H]1CC[C@H]2[C@@H]3CC=C4C(C)(C)C(=O)CC[C@]4(C)[C@H]3CC[C@]12C
dose: 100.0 mg/kg/injection, schedule: Q01DX001 (sc), vehicle: steriod suspending solution
  T/C: 97 % of control
dose: 200.0 mg/kg/injection, schedule: Q01DX001 (sc), vehicle: steriod suspending solution
  T/C: 98 % of control
dose: 400.0 mg/kg/injection, schedule: Q01DX001 (sc), vehicle: steriod suspending solution
  T/C: 97 % of control

## O=S(=O)(O)SCCCNc1ncnc2ccccc12
[6]
  T/C: 107 % of control
[7]
  T/C: 105 % of control
[14]
  T/C: 102 % of control

## COC(=O)c1cc2ccccc2cc1OCC(=O)NCc1ccc(Cl)cc1
dose: 50.0 mg/kg/injection, schedule: Q01DX001 (ip), vehicle: Klucel (hydroxypropylcellulose) (HPC)
  T/C: 105 % of control
[1]
  T/C: 94 % of control
[2]
  T/C: 97 % of control

## CCC1(Sc2ncnc3c2ncn3C2OC(CO)C(O)C2O)C(=O)NC(=O)NC1=O (stereo not drawn)
[11]
  T/C: 114 % of control
[12]
  T/C: 111 % of control
[13]
  T/C: 120 % of control

## c1ccc(N2CCN(c3ccccc3)C2c2ccc3c(c2)CCC3)cc1
[8]
  T/C: 92 % of control
[9]
  T/C: 90 % of control
[10]
  T/C: 104 % of control

## CN(C)C(=S)N=Nc1ccccc1
[21]
  T/C: 92 % of control
[23]
  T/C: 97 % of control
[3]
  T/C: 100 % of control
[15]
  T/C: 100 % of control
[4]
  T/C: 100 % of control
[17]
  T/C: 107 % of control

## Nc1ncc(-c2ccc(CNc3ccc(C(=O)NC(CC(=O)O)CC(=O)O)cc3)cc2)c(N)n1
dose: 10.5 mg/kg/injection, schedule: Q01DX009 (ip), vehicle: saline
  T/C: 122 % of control
[20]
  T/C: 114 % of control
dose: 14.5 mg/kg/injection, schedule: Q01DX009 (ip), vehicle: saline
  T/C: 116 % of control
dose: 18.0 mg/kg/injection, schedule: Q01DX009 (ip), vehicle: saline
  T/C: 114 % of control
dose: 22.0 mg/kg/injection, schedule: Q01DX009 (ip), vehicle: saline
  T/C: 116 % of control
[23]
  T/C: 165 % of control and 185 % of control
dose: 66.0 mg/kg/injection, schedule: Q01DX001 (ip), vehicle: saline
  T/C: 122 % of control
dose: 75.0 mg/kg/injection, schedule: Q01DX001 (ip), vehicle: saline
  T/C: 112 % of control and 119 % of control
dose: 75.0 mg/kg/injection, schedule: Q01DX009 (ip), vehicle: saline
  T/C: 107 % of control
dose: 150.0 mg/kg/injection, schedule: Q01DX001 (ip), vehicle: saline
  T/C: 115 % of control

## CCc1cccc(CC)c1NC(=O)CS
[8]
  T/C: 94 % of control
[9]
  T/C: 95 % of control

## CCCCCC(=O)c1c(O)cc(=O)oc1C
dose: 3.12 mg/kg/injection, schedule: Q01DX009 (ip), vehicle: Klucel (hydroxypropylcellulose) (HPC)
  T/C: 95 % of control
dose: 6.25 mg/kg/injection, schedule: Q01DX009 (ip), vehicle: Klucel (hydroxypropylcellulose) (HPC)
  T/C: 98 % of control
dose: 12.5 mg/kg/injection, schedule: Q01DX009 (ip), vehicle: Klucel (hydroxypropylcellulose) (HPC)
  T/C: 103 % of control
[22]
  T/C: 90 % of control

## O=C(Nc1ccc(Cl)cc1)Nc1ccc(Cl)cc1
[8]
  T/C: 91 % of control
[9]
  T/C: 91 % of control

## CCC(C)C(C(=O)O)c1ccccc1 (stereo not drawn)
[8]
  T/C: 100 % of control
[9]
  T/C: 98 % of control
[10]
  T/C: 94 % of control

## CC(C)COC(=O)C#CC(=O)OCC(C)C
dose: 25.0 mg/kg/injection, schedule: Q01DX001 (ip), vehicle: water
  T/C: 111 % of control
dose: 50.0 mg/kg/injection, schedule: Q01DX001 (ip), vehicle: water
  T/C: 106 % of control
dose: 100.0 mg/kg/injection, schedule: Q01DX001 (ip), vehicle: water
  T/C: 116 % of control

## CC1=C(N)/C(=C(/C)C#N)OC1=O
dose: 100.0 mg/kg/injection, schedule: Q01DX001 (ip), vehicle: saline with Tween-80
  T/C: 92 % of control
dose: 200.0 mg/kg/injection, schedule: Q01DX001 (ip), vehicle: saline with Tween-80
  T/C: 100 % of control
dose: 400.0 mg/kg/injection, schedule: Q01DX001 (ip), vehicle: saline with Tween-80
  T/C: 92 % of control

## [N-]=[N+]=Nc1c2ccccc2nc2ccccc12
dose: 2.0 mg/kg/injection, schedule: Q01DX001 (ip), vehicle: saline
  T/C: 92 % of control
dose: 4.0 mg/kg/injection, schedule: Q01DX001 (ip), vehicle: saline
  T/C: 94 % of control
dose: 8.0 mg/kg/injection, schedule: Q01DX001 (ip), vehicle: saline
  T/C: 103 % of control

Source: PubChem BioAssay AID248 (DTP/NCI, 2004)
